Assay results: paper PMC7427800 (Scientific Reports, 2020)
Like-named read-outs stand apart in the source and are kept apart here.

How the values were obtained:
[1] = molecular target: T1, human MOR (Homo sapiens, UniProt P35372); format: cell-based; set-up: host or cells: U2OS (PathHunter U2OS-hMOR-βarrestin2); conditions: PathHunter, U2OS-hMOR
[2] = molecular target: T1, human MOR; assay: biochemical; format: biochemical; set-up: host or cells: CHO (CHO-hMOR), cell membranes; conditions: for G protein activation %stim: percentage stimulation relative to DAMGO; for agonist character at the MOR: CHO-hMOR
[3] = rat, in vivo; cited from earlier work
[4] = molecular target: T2, human DOR (Homo sapiens, UniProt P41143); format: binding
T2 construct: host or cells: CHO (CHO-hDOR), cell membranes

[5] = tested on: acetic acid-induced writhing; assay: acetic acid-induced writhing test; format: in vivo, mice; conditions: for reduction in the number of writhes / times less effective than morphine (0.5 mg/kg) at equianalgesic doses: mice; for reduction in the number of writhes: 30 min after administration; for antiwrithing response after naltrexone pretreatment: naltrexone 1 mg/kg s.c. 10 min before agonist; for times less effective than morphine (0.5 mg/kg) at equianalgesic doses: writhing assay, s.c.
Method: Male CD1 mice (30–35 g, 7–8 weeks old) were obtained from the Center of Biomodels and Experimental Medicine (CBEM) (Innsbruck, Austria). Mice were group-housed in a temperature-controlled room with a 12 h light/dark cycle and with free access to food and water. All animal studies were conducted in accordance with ethical guidelines and animal welfare standards according to Austrian regulations for animal research and were approved by the Committee of Animal Care of the Austrian Federal Ministry of Science and Research. Test compounds or vehicle were administered by s.c. route in a volume of 10 µL/1 g of body weight.
Writhing was induced in mice by intraperitoneal (i.p.) injection of a 0.6% acetic acid aqueous solution[26]. Drugs or control (vehicle) were s.c. administered, and after 25 min (5 min prior to testing), each animal received i.p. acetic acid solution. Each mouse was placed in individual transparent Plexiglas chambers, and the number of writhes was counted during a 10 min observation period. […] For the antagonism study, naltrexone (1 mg/kg) was s.c. administered 10 min before the opioid agonist, and writhing as assessed as described above. Each experimental group included five to six animals.

[6] = tested on: dopamine D1 receptor; set-up: method as in PMID 18830156, PMID 30308941; conditions: cell-based functional assays; cited from earlier work
[7] = molecular target: T3, human KOR (Homo sapiens, UniProt P41145); format: binding
T3 construct: host or cells: CHO (CHO-hKOR), cell membranes

[8] = molecular target: T1, human MOR; assay: biochemical; format: binding; set-up: host or cells: CHO (CHO-hMOR), cell membranes

T1 sequence (P35372 whole entry): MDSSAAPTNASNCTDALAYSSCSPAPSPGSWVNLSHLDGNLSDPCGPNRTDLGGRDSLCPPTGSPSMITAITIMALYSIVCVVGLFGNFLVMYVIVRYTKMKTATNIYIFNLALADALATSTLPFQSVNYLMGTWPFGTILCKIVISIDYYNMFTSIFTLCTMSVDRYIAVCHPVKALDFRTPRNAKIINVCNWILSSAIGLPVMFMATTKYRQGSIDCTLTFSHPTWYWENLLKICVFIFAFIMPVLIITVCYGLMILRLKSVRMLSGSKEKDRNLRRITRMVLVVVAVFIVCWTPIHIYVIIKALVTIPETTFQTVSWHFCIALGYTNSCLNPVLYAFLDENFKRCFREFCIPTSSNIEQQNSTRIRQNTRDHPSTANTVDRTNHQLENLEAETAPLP
T2 sequence (P41143 whole entry): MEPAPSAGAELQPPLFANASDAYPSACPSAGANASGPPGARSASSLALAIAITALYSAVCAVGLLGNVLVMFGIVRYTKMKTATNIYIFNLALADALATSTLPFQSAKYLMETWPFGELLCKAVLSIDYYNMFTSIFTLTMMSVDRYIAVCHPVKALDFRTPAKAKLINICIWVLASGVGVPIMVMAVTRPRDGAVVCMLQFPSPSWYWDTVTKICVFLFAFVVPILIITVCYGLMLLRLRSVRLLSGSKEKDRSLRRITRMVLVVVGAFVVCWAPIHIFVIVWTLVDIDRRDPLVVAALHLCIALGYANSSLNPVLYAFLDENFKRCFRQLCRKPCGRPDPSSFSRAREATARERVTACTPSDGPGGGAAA
T3 sequence (P41145 whole entry): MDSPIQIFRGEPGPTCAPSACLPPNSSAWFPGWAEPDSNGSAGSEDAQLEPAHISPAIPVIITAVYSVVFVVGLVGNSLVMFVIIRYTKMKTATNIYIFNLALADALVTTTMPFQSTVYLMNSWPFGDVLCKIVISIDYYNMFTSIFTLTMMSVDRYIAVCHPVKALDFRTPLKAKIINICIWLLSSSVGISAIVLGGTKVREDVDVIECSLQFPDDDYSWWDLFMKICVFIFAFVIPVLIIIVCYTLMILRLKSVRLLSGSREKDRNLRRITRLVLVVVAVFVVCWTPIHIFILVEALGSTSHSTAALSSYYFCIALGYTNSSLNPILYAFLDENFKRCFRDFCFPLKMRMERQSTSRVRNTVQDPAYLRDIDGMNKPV

Row | Compound | β-arrestin2 recruitment upon activation of the MOR [1] | β-arrestin2 recruitment %stim ([1]; relative to DAMGO, – denotes no measurable activity) | G protein activation %stim ([2]; [35S]GTPγS binding) | blood–brain barrier crossing [3] | EC50 [2] | agonist character at the MOR ([2]; [35S]GTPγS binding) | specific binding to the human DOR [4] | reduction in the number of writhes ([5]; 10 mg/kg s.c.) | antiwrithing response after naltrexone pretreatment [5] | times less effective than morphine (0.5 mg/kg) at equianalgesic doses [5] | alterations in general behavior (locomotor activity, sedation) (mouse, in vivo) | activity at the dopamine D1 receptor [6] | specific binding to the human KOR [7] | Ki [8] | agonist potency, times greater than corydaline (2) ([2]; [35S]GTPγS binding) | agonist potency, times less potent than DAMGO ([2]; [35S]GTPγS binding) | reduction in the number of writhes ([5]; 5 mg/kg s.c.) | alterations in general behavior (locomotor activity, sedation) (mice, s.c., tested doses (5 mg/kg corydine, 10 mg/kg corydaline))
1 | C[C@@H](NC(=O)[C@@H](N)Cc1ccc(O)cc1)C(=O)NCC(=O)N(C)[C@@H](Cc1ccccc1)C(=O)NCCO [DAMGO, reference compound] | effectively recruited β-arrestin2 | 100% | 100% |  |  |  |  |  |  |  |  |  |  |  |  |  |  | 
2 | COc1cc2c(cc1OC)C1C(C)c3ccc(OC)c(OC)c3CN1CC2 (centres unmarked) [Corydaline (2), corydaline] | failed to induce β-arrestin2 recruitment |  | 104 ± 6% | can effectively cross the blood–brain barrier | 1500 ± 440 nM | full agonists | did not specifically bind | 59% | antagonized | ~20 times | no major alterations in locomotor activity and no sedation | antagonist activity | did not specifically bind | 1230 ± 290 nM |  |  |  | 
3 | COc1cc2c3c(c1O)-c1c(ccc(OC)c1OC)C[C@@H]3N(C)CC2 [Corydine (1), corydine] | failed to induce β-arrestin2 recruitment |  | 102 ± 6% |  | 510 ± 110 nM | full agonists | did not specifically bind |  | antagonized | ca. 10 times |  |  | did not specifically bind | 2820 ± 610 nM | about 3 times | 34 times | 51% | no major alterations in locomotor activity and no sedation
